The assay concerns the target Regulator of G-protein signaling 4 (Homo sapiens, UniProt P49798). Description: RGS4-Galphao binding modulators, SAR follow-up, biochemical, multiplexed bead flow cytometry, SAR compounds (AID 2295). (In general: Flow cytometry measures light scatter and fluorescence of single cells or particles in a stream.)

Regulator of G-protein signaling 4, sequence (P49798 whole entry): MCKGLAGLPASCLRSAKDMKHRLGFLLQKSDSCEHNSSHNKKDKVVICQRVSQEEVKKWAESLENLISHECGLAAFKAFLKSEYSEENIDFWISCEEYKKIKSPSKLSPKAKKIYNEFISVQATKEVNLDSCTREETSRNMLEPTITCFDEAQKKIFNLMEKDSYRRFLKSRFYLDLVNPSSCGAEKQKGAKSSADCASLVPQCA

A word on the Ki: it is a measure of affinity in units of concentration, obtained from inhibition or displacement. Read a high Ki as lower affinity. For the compound `NS(=O)(=O)c1ccc(N=NCc2ccc(O)c(O)c2O)c([N+](=O)[O-])c1` [4-[[(E)-(2,3-dihydroxy-4-oxo-1-cyclohexa-2,5-dienylidene)methyl]hydrazo]-3-nitrobenzenesulfonamide], the Ki stood at 1020 nM.

The values are drawn from BindingDB's records for doi:10.7270/Q27P8WVP (Nmmlsc, 2010).
